Measured values published in US10448639B2, “Fungicidal pyrazoles” (FMC CORPORATION, priority 2009, dated 2019).
Marks after values point to notes of the source that are not given here.

Legend:
Septoria nodorum = experiment: Test F: Septoria glume blotch, preventive spray on wheat seedlings, visual disease rating
Alternaria solani = experiment: Test C: tomato early blight, preventive spray on tomato seedlings, visual disease rating
[1] = test system: Erysiphe graminis f sp. tritici; experiment: Test J: wheat powdery mildew, preventive spray on wheat seedlings, visual disease rating
Botrytis cinerea = experiment: Test B: tomato Botrytis, preventive spray on tomato seedlings, visual disease rating
[2] = test system: Puccinia recondita f. sp. tritici; experiment: Test I: wheat leaf rust, preventive spray on wheat seedlings, visual disease rating
[3] = test system: Puccinia recondita f. sp. tritici; experiment: Test H: wheat leaf rust, curative spray on inoculated wheat seedlings, visual disease rating
Septoria tritici = experiment: Test G: wheat leaf blotch, preventive spray on wheat seedlings, visual disease rating
[4] = Septoria glume blotch, 100 = 100% disease control, 0 = no control relative to controls
[5] = tomato early blight, 100 = 100% disease control, 0 = no control relative to controls
[6] = wheat powdery mildew, 100 = 100% disease control, 0 = no control relative to controls
[7] = tomato Botrytis, 100 = 100% disease control, 0 = no control relative to controls
[8] = wheat leaf rust, preventive, 100 = 100% disease control, 0 = no control relative to controls
[9] = wheat leaf rust, curative, 100 = 100% disease control, 0 = no control relative to controls
[10] = wheat leaf blotch, 100 = 100% disease control, 0 = no control relative to controls
[11] = Septoria glume blotch on wheat, preventive spray, 100 = 100% disease control, 0 = no control
[12] = tomato early blight, preventive spray, 100 = 100% disease control, 0 = no control
[13] = wheat powdery mildew, preventive spray, 100 = 100% disease control, 0 = no control
[14] = tomato Botrytis, preventive spray, 100 = 100% disease control, 0 = no control
[15] = wheat leaf rust, preventive spray, 100 = 100% disease control, 0 = no control
[16] = wheat leaf rust, curative spray, 100 = 100% disease control, 0 = no control
[17] = wheat leaf blotch, preventive spray, 100 = 100% disease control, 0 = no control

SMILES | Test F rating (% disease control) (Septoria nodorum; [4]) [%] | Test C rating (% disease control) (Alternaria solani; [5]) [%] | Test J rating (% disease control) [1, 6] [%] | Test B rating (% disease control) (Botrytis cinerea; [7]) [%] | Test I rating (% disease control) [2, 8] [%] | Test H rating (% disease control) [3, 9] [%] | Test G rating (% disease control) (Septoria tritici; [10]) [%] | other results
Cc1nn(C)c(Oc2cc(F)cc(F)c2F)c1-c1c(F)cc(F)cc1F [compound 167] | 0 | 0 | 0 | 75 | 0 | 0 | 0 | 
Cc1cc(Oc2c(-c3c(F)cc(F)cc3F)c(C)nn2C)ccc1Br [compound 165] | 0 | 0 | 99 | 0 | 0 | 8 | 52 | 
COc1cc(F)c(Nc2c(-c3c(F)cccc3Cl)c(C)nn2C)c(F)c1 [compound 190] | 80 | 99 | 99 | 99 | 100 | 94 | 100 | 
COc1cc(F)c(-c2c(C)nn(C)c2Nc2c(Cl)cc(OC)cc2OC)c(F)c1 [compound 59] |  |  |  |  |  |  |  | Test F rating (% disease control) (Septoria nodorum; [11]): 0%; Test C rating (% disease control) (Alternaria solani; [12]): 0%; Test J rating (% disease control) [1, 13]: 0%; Test B rating (% disease control) (Botrytis cinerea; [14]): 94%; Test I rating (% disease control) [2, 15]: 68%; Test H rating (% disease control) [3, 16]: 0%; Test G rating (% disease control) (Septoria tritici; [17]): 88%
Cc1cc(Oc2c(-c3c(F)cc(F)cc3F)c(C)nn2C)ccc1Cl [compound 157] | 0 | 0 | 73 | 0 | 54 | 0 | 0 | 
Cc1nn(C)c(Nc2c(F)cc(F)cc2F)c1-c1cccc(F)c1F [compound 203] | 0 | 0 | 100 | 99 | 96 | 0 | 98 | 
Cc1nn(C)c(Nc2ccc(Cl)nc2Cl)c1-c1ccc(F)cc1Cl [compound 107] |  |  |  |  |  |  |  | Test F rating (% disease control), value marked * (Septoria nodorum; Septoria glume blotch, preventive spray, rating marked with asterisk (different test condition, key not given)): 0* %; Test C rating (% disease control), value marked * (Alternaria solani; tomato early blight, preventive spray, rating marked with asterisk (different test condition, key not given)): 0* %; Test J rating (% disease control), value marked * ([1]; wheat powdery mildew, preventive spray, rating marked with asterisk (different test condition, key not given)): 0* %; Test B rating (% disease control), value marked * (Botrytis cinerea; tomato Botrytis, preventive spray, rating marked with asterisk (different test condition, key not given)): 99* %; Test I rating (% disease control), value marked * ([2]; wheat leaf rust, preventive spray, rating marked with asterisk (different test condition, key not given)): 24* %; Test H rating (% disease control), value marked * ([3]; wheat leaf rust, curative spray, rating marked with asterisk (different test condition, key not given)): 8* %; Test G rating (% disease control), value marked * (Septoria tritici; wheat leaf blotch, preventive spray, rating marked with asterisk (different test condition, key not given)): 99* %
CCOC(=O)Cn1nc(C)c(-c2c(F)cc(F)cc2F)c1Oc1c(F)cc([N+](=O)[O-])cc1F [compound 65] |  |  |  |  |  |  |  | Test F rating (% disease control) (Septoria nodorum; [11]): 0%; Test C rating (% disease control) (Alternaria solani; [12]): 0%; Test J rating (% disease control) [1, 13]: 0%; Test B rating (% disease control) (Botrytis cinerea; [14]): 0%; Test I rating (% disease control) [2, 15]: 58%; Test H rating (% disease control) [3, 16]: 0%; Test G rating (% disease control) (Septoria tritici; [17]): 1%
Cc1nn(C)c(Nc2ccc(F)cc2Br)c1-c1c(Cl)cccc1Cl [compound 340] |  |  |  |  |  |  |  | Test F disease control rating (Septoria nodorum; Septoria glume blotch on wheat, 100 = 100% disease control, 0 = no disease control relative to controls): 0%; Test C disease control rating (Alternaria solani; tomato early blight, 100 = 100% disease control, 0 = no disease control relative to controls): 0%; Test J disease control rating ([1]; wheat powdery mildew, sprayed the day before inoculation, 100 = 100% disease control, 0 = no disease control relative to controls): 100%; Test B disease control rating (Botrytis cinerea; tomato Botrytis, 100 = 100% disease control, 0 = no disease control relative to controls): 99%; Test I disease control rating ([2]; wheat leaf rust, sprayed the day before inoculation, 100 = 100% disease control, 0 = no disease control relative to controls): 91%; Test H disease control rating ([3]; wheat leaf rust, sprayed after inoculation, 100 = 100% disease control, 0 = no disease control relative to controls): 0%; Test G disease control rating (Septoria tritici; wheat leaf blotch, sprayed the day before inoculation, 100 = 100% disease control, 0 = no disease control relative to controls): 100%
Cc1nn(C)c(Nc2c(F)cc(F)cc2F)c1-c1ccc(F)cc1Br [Compound 266, 4-(2-bromo-4-fluorophenyl)-1,3-dimethyl-N-(2,4,6-trifluorophenyl)-1H-pyrazol-5-amine] |  |  |  |  |  |  |  | pest or weed control at 200 µg/mL (Septoria nodorum; Parastagonospora nodorum, in Triticum aestivum, 192 h, read-out: Test F rating (% disease control)): 98%; pest or weed control at 200 µg/mL (Alternaria solani; Alternaria solani, in Solanum lycopersicum, 168 h, read-out: Test C rating (% disease control)): 100%; pest or weed control at 200 µg/mL ([1]; Blumeria graminis, in Triticum aestivum, 192 h, read-out: Test J rating (% disease control)): 100%; pest or weed control at 200 µg/mL (Botrytis cinerea; Botrytis cinerea, in Solanum lycopersicum, 120 h, read-out: Test B rating (% disease control)): 100%; pest or weed control at 200 µg/mL ([2]; 192 h, read-out: Test I rating (% disease control)): 100%; pest or weed control at 200 µg/mL ([3]; 144 h, read-out: Test H rating (% disease control)): 0%; pest or weed control at 200 µg/mL (Septoria tritici; Zymoseptoria tritici, in Triticum aestivum, 504 h, read-out: Test G rating (% disease control)): 100%
